Reference: patent US20060223841A1 (priority 2003, published 2006)

Experiments:
[1] = Stability of ratio of the mixture of desloratadine polymorphic forms on storage (XRPD); assay type: physicochemical
Excerpt: Copper radiation of 1.5418 Å was used.
In all cases samples were packed in polyethylene and store above conditions.

[2] = Stability under grinding by hand in mortar and pestle (XRD); details: grinding by hand in mortar and pestle for one minute
[3] = Solubility of desloratadine; assay type: physicochemical
[4] = 25° C., 60% RH, 1 month (4 weeks)
[5] = 25° C., 60% RH, 2 months (8 weeks)
[6] = 25° C., 60% RH, 3 months (12 weeks)
[7] = 25° C., 60% RH, 6 months (24 weeks)
[8] = 40° C., 75% RH, 1 month (4 weeks)
[9] = 40° C., 75% RH, 2 months (8 weeks)
[10] = 40° C., 75% RH, 3 months (12 weeks)
[11] = 40° C., 75% RH, 6 months (24 weeks)

| Structure (SMILES) | Form 1 (%) ([1]; 25° C., 60% RH, 0 week) | Form 2 (%) ([1]; 25° C., 60% RH, 0 week) | Form 1 (%) [1, 4] [%] | Form 2 (%) [1, 4] [%] | Form 1 (%) ([1]; 25° C., 60% RH, 1 week) | Form 2 (%) ([1]; 25° C., 60% RH, 1 week) | Form 1 (%) [1, 5] [%] | Form 2 (%) [1, 5] [%] | Form 1 (%) ([1]; 25° C., 60% RH, 2 weeks) | Form 2 (%) ([1]; 25° C., 60% RH, 2 weeks) | Form 1 (%) [1, 6] [%] | Form 2 (%) [1, 6] [%] | Form 1 (%) ([1]; 40° C., 75% RH, 0 week) | Form 2 (%) ([1]; 40° C., 75% RH, 0 week) | Form 1 (%) [1, 8] [%] | Form 2 (%) [1, 8] [%] | Form 1 (%) ([1]; 40° C., 75% RH, 1 week) | Form 2 (%) ([1]; 40° C., 75% RH, 1 week) | Form 1 (%) [1, 9] [%] | change in the XRD pattern after grinding [2] | other results |
| --- | --- | --- | --- | --- | --- | --- | --- | --- | --- | --- | --- | --- | --- | --- | --- | --- | --- | --- | --- | --- | --- |
| Clc1ccc2c(c1)CCc1cccnc1C2=C1CCNCC1 [Example 4 of Stability Tests, desloratadine] | 76 | 24 | 82 | 18 | 87 | 13 | 86 | 14 | 80 | 20 | 81 | 19 | 76 | 24 | 88 | 12 | 76 | 24 | 85 | – | Form 1 (%) [1, 7]: 84%; Form 2 (%) [1, 7]: 16%; Form 2 (%) [1, 9]: 15%; Form 1 (%) ([1]; 40° C., 75% RH, 2 weeks): 82%; Form 2 (%) ([1]; 40° C., 75% RH, 2 weeks): 18%; Form 1 (%) [1, 10]: 82%; Form 2 (%) [1, 10]: 18%; Form 1 (%) [1, 11]: 82%; Form 2 (%) [1, 11]: 18% |
| Clc1ccc2c(c1)CCc1cccnc1C2=C1CCNCC1 [Example 2 of Stability Tests, desloratadine] | 62 | 38 | 66 | 34 | 65 | 35 | 67 | 33 | 61 | 39 | 66 | 34 | 62 | 38 | 65 | 35 | 63 | 37 | 65 | – | Form 2 (%) [1, 9]: 35%; Form 1 (%) ([1]; 40° C., 75% RH, 2 weeks): 64%; Form 2 (%) ([1]; 40° C., 75% RH, 2 weeks): 36% |
| Clc1ccc2c(c1)CCc1cccnc1C2=C1CCNCC1 [75:25, desloratadine] | – | – | – | – | – | – | – | – | – | – | – | – | – | – | – | – | – | – | – | do not show any substantial change | – |
| Clc1ccc2c(c1)CCc1cccnc1C2=C1CCNCC1 [84:16, desloratadine] | – | – | – | – | – | – | – | – | – | – | – | – | – | – | – | – | – | – | – | do not show any substantial change | – |
| Clc1ccc2c(c1)CCc1cccnc1C2=C1CCNCC1 [25:75, desloratadine] | – | – | – | – | – | – | – | – | – | – | – | – | – | – | – | – | – | – | – | do not show any substantial change | – |
| Clc1ccc2c(c1)CCc1cccnc1C2=C1CCNCC1 [Form II, desloratadine, reference compound] | – | – | – | – | – | – | – | – | – | – | – | – | – | – | – | – | – | – | – | stable | – |
| Clc1ccc2c(c1)CCc1cccnc1C2=C1CCNCC1 [Form I, desloratadine, reference compound] | – | – | – | – | – | – | – | – | – | – | – | – | – | – | – | – | – | – | – | stable | – |
| Clc1ccc2c(c1)CCc1cccnc1C2=C1CCNCC1 [desloratadine, 8-chloro-6,11-dihydro-11-(4-piperidylidene)-5H-benzo[5,6] cyclohepta[1,2-b]pyridine] | – | – | – | – | – | – | – | – | – | – | – | – | – | – | – | – | – | – | – | – | solubility [3]: very low |
| Clc1ccc2c(c1)CCc1cccnc1C2=C1CCNCC1 [Example 1 of Stability Tests, desloratadine] | 57 | 43 | 55 | 45 | 59 | 41 | 63 | 37 | 53 | 47 | 52 | 48 | 57 | 43 | 50 | 50 | 46 | 54 | 39 | – | Form 2 (%) [1, 9]: 61%; Form 1 (%) ([1]; 40° C., 75% RH, 2 weeks): 43%; Form 2 (%) ([1]; 40° C., 75% RH, 2 weeks): 57% |
| Clc1ccc2c(c1)CCc1cccnc1C2=C1CCNCC1 [Example 3 of Stability Tests, desloratadine] | 74 | 26 | 79 | 21 | 79 | 21 | 75 | 25 | 74 | 26 | 74 | 26 | 74 | 26 | 78 | 22 | 77 | 23 | 78 | – | Form 1 (%) [1, 7]: 77%; Form 2 (%) [1, 7]: 23%; Form 2 (%) [1, 9]: 22%; Form 1 (%) ([1]; 40° C., 75% RH, 2 weeks): 81%; Form 2 (%) ([1]; 40° C., 75% RH, 2 weeks): 19%; Form 1 (%) [1, 10]: 75%; Form 2 (%) [1, 10]: 25%; Form 1 (%) [1, 11]: 75%; Form 2 (%) [1, 11]: 25% |
| Clc1ccc2c(c1)CCc1cccnc1C2=C1CCNCC1 [50:50, desloratadine] | – | – | – | – | – | – | – | – | – | – | – | – | – | – | – | – | – | – | – | do not show any substantial change | – |
